From patent US20110082161A1, “POWDERS FOR RECONSTITUTION” (priority 2008, published 2011)

How the values were obtained:
[1] = Safety and tolerability in Phase I single-dose trial; assay type: in vivo, human healthy subjects; details: single doses of 200 mg TMC125, healthy subjects
Description: No clinically relevant safety issues were identified with respect to the parameters studied, including AEs, laboratory and cardiovascular safety, and physical and skin examinations.

[2] = background statement; cited from earlier work

Cc1cc(C#N)cc(C)c1Oc1nc(Nc2ccc(C#N)cc2)nc(N)c1Br [TMC125, 4-[[6-amino-5-bromo-2-[(4-cyanophenyl)amino]-4-pyrimidinyl]oxy]-3,5-dimethylbenzonitrile]
safety and tolerability (AEs, laboratory, cardiovascular, physical and skin examinations) [1]: generally safe and well tolerated | solubility in aqueous media [2]: very insoluble
